Results from patent US9745360B2 (Sanofi, priority 2012, dated 2017).
Where two headings read alike, the source gives them in different places. *1 amine or outer side, *2 acyl side, *3 side chain or, on linkers, in order; H or OH if unused. Where a SMILES comes first, the peptide text is derived from it. Side-chain parts run from the residue outwards. [ ]: non-standard residue; d: D form. The star is where a group is joined. γGlu = O=C(O)[C@H](CCC(=O)[*:2])N[*:1]; Stearoyl = CCCCCCCCCCCCCCCCCC(=O)*; Palmitoyl = CCCCCCCCCCCCCCCC(=O)*; d(αMeK) = C[C@@](N)(CCCCN)C(=O)O; αMeOrn = C[C@](N)(CCCN)C(=O)O; Aib = CC(C)(N)C(=O)O

Tests used:
[1] = molecular target: T1, human GIP receptor (hGIP R) (Homo sapiens, UniProt P48546); experiment: cAMP response (HTRF) of HEK-293 cells stably expressing human GIP receptor; type: cell-based; details: Table 7; cAMP formation
T1 construct: expressed in transfected cells
T1 sequence (P48546 22-466): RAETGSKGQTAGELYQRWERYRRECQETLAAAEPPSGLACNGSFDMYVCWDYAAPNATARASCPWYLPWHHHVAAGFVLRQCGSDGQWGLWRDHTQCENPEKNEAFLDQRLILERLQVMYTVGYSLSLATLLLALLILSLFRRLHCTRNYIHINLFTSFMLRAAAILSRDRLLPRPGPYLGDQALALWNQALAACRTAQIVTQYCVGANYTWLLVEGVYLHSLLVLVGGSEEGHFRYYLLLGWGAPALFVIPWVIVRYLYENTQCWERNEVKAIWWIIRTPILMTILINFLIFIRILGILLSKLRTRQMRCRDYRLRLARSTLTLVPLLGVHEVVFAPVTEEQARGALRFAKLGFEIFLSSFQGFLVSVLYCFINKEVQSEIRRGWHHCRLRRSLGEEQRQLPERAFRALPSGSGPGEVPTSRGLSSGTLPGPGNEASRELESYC
Protocol: (§1) cAMP content of cells was determined using a kit from Cisbio Corp. (cat. no. 62AM4PEC) based on HTRF (Homogenous Time Resolved Fluorescence). For preparation, cells were split into T175 culture flasks and grown overnight to near confluency in medium (DMEM/10% FBS). Medium was then removed and cells washed with PBS lacking calcium and magnesium, followed by proteinase treatment with accutase (Sigma-Aldrich cat. no. A6964). Detached cells were washed and resuspended in assay buffer (1×HBSS; 20 mM HEPES, 0.1% BSA, 2 mM IBMX) and cellular density determined. They were then diluted to 400000 cells/ml and 25 μl-aliquots dispensed into the wells of 96-well plates. For measurement, 25 μl of test compound in assay buffer was added to the wells, followed by incubation for 30 minutes at room temperature.

[2] = molecular target: T2, human glucagon receptor (hGLUC R) (Homo sapiens, UniProt P47871); experiment: cAMP response (HTRF) of HEK-293 cells stably expressing human glucagon receptor; type: cell-based; details: Table 7; cAMP formation
T2 construct: expressed in transfected cells
T2 sequence (P47871 26-477): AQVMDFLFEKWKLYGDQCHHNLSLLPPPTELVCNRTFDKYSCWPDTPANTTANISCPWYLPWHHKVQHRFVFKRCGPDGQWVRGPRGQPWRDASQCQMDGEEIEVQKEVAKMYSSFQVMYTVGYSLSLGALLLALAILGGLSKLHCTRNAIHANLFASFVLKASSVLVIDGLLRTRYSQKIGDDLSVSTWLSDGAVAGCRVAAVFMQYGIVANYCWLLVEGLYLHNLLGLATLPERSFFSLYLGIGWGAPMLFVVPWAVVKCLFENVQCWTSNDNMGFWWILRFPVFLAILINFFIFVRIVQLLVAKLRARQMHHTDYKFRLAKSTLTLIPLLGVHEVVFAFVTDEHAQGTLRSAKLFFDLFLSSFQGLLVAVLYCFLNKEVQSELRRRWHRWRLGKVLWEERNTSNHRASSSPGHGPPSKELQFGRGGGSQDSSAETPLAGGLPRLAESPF
Protocol: as §1

[3] = molecular target: T3, human GLP-1 receptor (hGLP-1 R) (Homo sapiens, UniProt P43220); experiment: cAMP response (HTRF) of HEK-293 cells stably expressing human GLP-1 receptor; type: cell-based; details: Table 7; cAMP formation
T3 construct: expressed in transfected cells
T3 sequence (P43220 24-463): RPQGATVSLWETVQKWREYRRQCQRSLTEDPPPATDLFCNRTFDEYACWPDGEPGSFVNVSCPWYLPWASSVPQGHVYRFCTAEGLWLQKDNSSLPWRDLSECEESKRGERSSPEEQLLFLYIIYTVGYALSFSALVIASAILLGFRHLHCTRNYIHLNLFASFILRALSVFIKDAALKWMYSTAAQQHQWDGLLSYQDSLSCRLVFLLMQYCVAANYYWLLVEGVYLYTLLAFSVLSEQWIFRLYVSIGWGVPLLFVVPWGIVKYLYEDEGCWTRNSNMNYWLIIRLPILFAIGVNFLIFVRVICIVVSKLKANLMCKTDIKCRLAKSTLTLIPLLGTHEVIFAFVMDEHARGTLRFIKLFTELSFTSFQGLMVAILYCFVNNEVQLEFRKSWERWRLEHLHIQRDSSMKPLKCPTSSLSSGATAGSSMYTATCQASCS
Protocol: as §1

[4] = Solubility testing in buffer, HPLC-UV of supernatant; type: physicochemical; details: buffer, target concentration 1.0 mg/mL
Protocol: (§2) Solubility and chemical stability of peptidic compounds were assessed as described in Methods.

[5] = Chemical stability in solution, 7 days at 25° C., % remaining peptide; type: physicochemical; details: % remaining peptide after 7 days at 25° C.
Protocol: The chemical stability is expressed as “% remaining peptide”.
as §2

[6] = test system: non-fasted female diabetic dbdb-mice; experiment: Glucose lowering in non-fasted female diabetic dbdb-mice; type: in vivo; details: 3 μg/kg s.c., at 240 min, kept to 480 min, baseline 20-22 mmol/l
Description: Female diabetic dbdb-mice of mean non-fasted glucose value of 20-22 mmol/l and a body weight of 42 g+/−0.6 g (SEM) were used. Mice were individually marked and were adapted to housing conditions for at least one week.
3-5 days prior to study start mice were assigned to groups and cages (4 mice per cage, 8 per group, control group 16) according to their non-fasted glucose values to ensure even distribution of lower and higher values between groups (stratification). On the study day, mice were weighed and dosed (t=0). Immediately prior to compound administration feed was removed while water remained available, and a first blood sample at a tail incision was drawn (baseline). Further blood samples were drawn at the tail incision at 30, 60, 90, 120, 240, 360, and 480 min.
Statistical analyses are performed with Everstat Version 6.0 based on SAS by 2-way-ANOVA on repeated measures, followed by Dunnett's post-hoc test against vehicle-control. Differences are considered statistically significant at the p<0.05 level.

[7] = Pharmacokinetic testing in mice, s.c., LC/MS of plasma; type: in vivo; details: mouse, sc, 1 mg/kg s.c.
Protocol: Mice were dosed 1 mg/kg subcutaneously (s.c.).
Pharmacokinetic profiles were determined as described in Methods.

Row | SMILES | EC50 [1] [nM] | EC50 [2] [nM] | EC50 [3] [nM] | solubility at 2 h ([4]; pH 4.5, read-out: Solubility (pH 4.5)) [µg/mL] | solubility at 2 h ([4]; pH 7.4, read-out: Solubility (pH 7.4)) [µg/mL] | Stability (pH 4.5) ([5]; pH 4.5) [%] | Stability (pH 7.4) ([5]; pH 7.4) [%] | maximal effect, glucose reduction [6] [mmol/L] | Cmax [7] [ng/mL] | half-life [7] [h]
1 | CCCCCCCCCCCCCCCC(=O)N[C@@H](CCC(=O)NCCCC[C@H](NC(=O)[C@H](CCC(N)=O)NC(=O)[C@@H](NC(=O)[C@H](CO)NC(=O)[C@H](CC(C)C)NC(=O)[C@H](CC(=O)O)NC(=O)[C@H](CO)NC(=O)[C@@H](NC(=O)[C@H](Cc1ccccc1)NC(=O)[C@@H](NC(=O)CNC(=O)[C@H](CCC(=O)O)NC(=O)C(C)(C)NC(=O)[C@@H](N)Cc1ccc(O)cc1)[C@@H](C)O)[C@@H](C)O)[C@@H](C)CC)C(=O)N[C@@H](CCC(=O)O)C(=O)N[C@@H](CCC(=O)O)C(=O)N[C@@H](CCCNC(=N)N)C(=O)N[C@@H](C)C(=O)N[C@@H](C)C(=O)N[C@](C)(CCCCN)C(=O)N[C@@H](CCC(=O)O)C(=O)N[C@@H](Cc1ccccc1)C(=O)N[C@H](C(=O)N[C@@H](CCC(=O)O)C(=O)N[C@@H](Cc1c[nH]c2ccccc12)C(=O)N[C@@H](CC(C)C)C(=O)N[C@@H](CCCCN)C(=O)N[C@@H](CC(N)=O)C(=O)N[C@H](C(=O)NCC(=O)N1CCC[C@H]1C(=O)N[C@@H](CO)C(=O)N[C@@H](CO)C(=O)NCC(=O)N[C@@H](C)C(=O)N1CCC[C@H]1C(=O)N1CCC[C@H]1C(=O)N1CCC[C@H]1C(=O)N[C@@H](CO)C(N)=O)[C@@H](C)O)[C@@H](C)CC)C(=O)O [SEQ ID NO: 9, Y-Aib-E-G-T-F-T-S-D-L-S-I-Q-K(γE-x53)-E-E-R-A-A-(R)MeLys-E-F-I-E-W-L-K-N-T-G-P-S-S-G-A-P-P-P-S-NH2] (H-Y[Aib]EGTFTSDLSIQK([γGlu-Palmitoyl])EERAA[d(αMeK)]EFIEWLKNTGPSSGAPPPS-NH2) | 0.0932 | > 1000 | 0.0135 |  |  |  |  |  |  | 
2 | CCCCCCCCCCCCCCCCCC(=O)N[C@@H](CCC(=O)NCCCC[C@H](NC(=O)[C@H](CCC(N)=O)NC(=O)[C@@H](NC(=O)[C@H](CO)NC(=O)[C@H](CC(C)C)NC(=O)[C@H](CC(=O)O)NC(=O)[C@H](CO)NC(=O)[C@@H](NC(=O)[C@H](Cc1ccccc1)NC(=O)[C@@H](NC(=O)CNC(=O)[C@H](CCC(N)=O)NC(=O)C(C)(C)NC(=O)[C@@H](N)Cc1ccc(O)cc1)[C@@H](C)O)[C@@H](C)O)[C@@H](C)CC)C(=O)N[C@@H](CC(=O)O)C(=O)N[C@@H](CCC(=O)O)C(=O)N[C@@H](CCC(N)=O)C(=O)N[C@@H](CCCNC(=N)N)C(=O)N[C@@H](C)C(=O)N[C@@](C)(CCCN)C(=O)N[C@@H](CCC(=O)O)C(=O)N[C@@H](Cc1ccccc1)C(=O)N[C@H](C(=O)N[C@@H](CCC(=O)O)C(=O)N[C@@H](Cc1c[nH]c2ccccc12)C(=O)N[C@@H](CC(C)C)C(=O)N[C@@H](CCCCN)C(=O)N[C@@H](C)C(=O)NCC(=O)NCC(=O)N1CCC[C@H]1C(=O)N[C@@H](CO)C(=O)N[C@@H](CO)C(=O)NCC(=O)N[C@@H](C)C(=O)N1CCC[C@H]1C(=O)N1CCC[C@H]1C(=O)N1CCC[C@H]1C(=O)N[C@@H](CO)C(N)=O)[C@@H](C)CC)C(=O)O [SEQ ID NO: 15, Y-Aib-Q-G-T-F-T-S-D-L-S-I-Q-K(γE-x70)-D-E-Q-R-A-(S)MeOrn-E-F-I-E-W-L-K-A-G-G-P-S-S-G-A-P-P-P-S-NH2] (H-Y[Aib]QGTFTSDLSIQK([γGlu-Stearoyl])DEQRA[αMeOrn]EFIEWLKAGGPSSGAPPPS-NH2) | 0.0089 |  | 0.0161 | > 1000 | > 1000 | 98.0 | 98.0 | ~12 | 3740 | 2.9
